Laboratory results published in patent US11477982B2, “2-amino-5-oxyalkyl-pyrimidine derivatives and their use for controlling undesired plant growth” (Bayer CropScience Aktiengesellschaft, priority 2017, dated 2022).

Assays:
Format in all cases: in vivo
[1] = system: ALOMY: Alopecurus myosuroides; experiment: Post-emergence herbicidal effect
In short: (§1)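 Visual % activity against untreated controls, where 100% means plants died and 0% means no difference, rated about 3 weeks after treatment. Plants were sprayed at the one-leaf stage with WP or EC formulations diluted in water plus 0.5% additive, at 600 l/ha.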

LOLRI: Lolium rigidum [2] = experiment: Post-emergence herbicidal effect
In short: as §1

HORMU: Hordeum murinum [3] = experiment: Post-emergence herbicidal effect
In short: as §1

[4] = system: ECHCG: Echinochloa crus-galli; experiment: Post-emergence herbicidal effect
In short: as §1

[5] = system: POLCO: Polygonum convolvulus; experiment: Post-emergence herbicidal effect
In short: as §1

[6] = system: ABUTH: Abutilon theophrasti; experiment: Post-emergence herbicidal effect
In short: as §1

SETVI: Setaria viridis [7] = experiment: Post-emergence herbicidal effect
In short: as §1

PHBPU: Ipomoea purpurea [8] = experiment: Post-emergence herbicidal effect
In short: as §1

[9] = system: ALOMY: Alopecurus myosuroides; experiment: Pre-emergence herbicidal effect; conditions: pre-emergence
In short: (§2)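 Visual damage rating after ~3 weeks in greenhouse, expressed as % activity relative to untreated pots, where 0% equals control and 100% means dead plants. Treatment was pre-emergence: WP or EC formulations applied to covering soil at 600 l/ha water with 0.5% additive.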

CYPES = experiment: Pre-emergence herbicidal effect
In short: as §2

LOLRI: Lolium rigidum [10] = experiment: Pre-emergence herbicidal effect
In short: as §2

HORMU: Hordeum murinum [11] = experiment: Pre-emergence herbicidal effect; conditions: pre-emergence
In short: as §2

AVEFA: Avena fatua [12] = experiment: Pre-emergence herbicidal effect
In short: as §2

VIOTR: Viola tricolor [13] = experiment: Pre-emergence herbicidal effect; conditions: dosage 320 g/ha
In short: as §2

[14] = system: ECHCG: Echinochloa crus-galli; experiment: Pre-emergence herbicidal effect; conditions: pre-emergence
In short: as §2

[15] = system: MATIN: Matricaria inodora; experiment: Pre-emergence herbicidal effect; conditions: pre-emergence; dosage 320 g/ha
In short: as §2

STEME: Stellaria media [16] = experiment: Pre-emergence herbicidal effect; conditions: pre-emergence; dosage 320 g/ha
In short: as §2

[17] = system: POLCO: Polygonum convolvulus; experiment: Pre-emergence herbicidal effect
In short: as §2

[18] = system: ABUTH: Abutilon theophrasti; experiment: Pre-emergence herbicidal effect
In short: as §2

VERPE: Veronica persica [19] = experiment: Pre-emergence herbicidal effect; conditions: dosage 320 g/ha
In short: as §2

[20] = system: AMARE: Amaranthus retroflexus; experiment: Pre-emergence herbicidal effect; conditions: pre-emergence
In short: as §2

SETVI: Setaria viridis [21] = experiment: Pre-emergence herbicidal effect; conditions: pre-emergence
In short: as §2

PHBPU: Ipomoea purpurea [22] = experiment: Pre-emergence herbicidal effect
In short: as §2

AVEFA: Avena fatua [23] = experiment: Post-emergence herbicidal effect
In short: as §1

VIOTR: Viola tricolor [24] = experiment: Post-emergence herbicidal effect
In short: as §1

[25] = system: MATIN: Matricaria inodora; experiment: Post-emergence herbicidal effect
In short: as §1

STEME: Stellaria media [26] = experiment: Post-emergence herbicidal effect
In short: as §1

[27] = system: AMARE: Amaranthus retroflexus; experiment: Post-emergence herbicidal effect
In short: as §1

VERPE: Veronica persica [28] = experiment: Post-emergence herbicidal effect; conditions: dosage 320 g/ha
In short: as §1

Compound: Cc1ccc2c(c1)[C@H](Nc1ncc([C@H](C)O)c(N)n1)[C@@H](C)C2 (racemic) [drawing 14, reference compound]
- Herbicidal action against ALOMY ([1]; dosage 80 g/ha): 0%
- Herbicidal action against ALOMY ([1]; dosage 320 g/ha): 70%
- Herbicidal action against LOLRI (LOLRI: Lolium rigidum [2]; dosage 80 g/ha): 30%
- Herbicidal action against LOLRI (LOLRI: Lolium rigidum [2]; dosage 320 g/ha): 70%
- Herbicidal action against HORMU (HORMU: Hordeum murinum [3]; dosage 80 g/ha): 0%
- Herbicidal action against HORMU (HORMU: Hordeum murinum [3]; dosage 320 g/ha): 20%
- Herbicidal action against ECHCG ([4]; dosage 80 g/ha): 0%
- Herbicidal action against POLCO ([5]; dosage 80 g/ha): 60%
- Herbicidal action against POLCO ([5]; dosage 320 g/ha): 60%
- Herbicidal action against ABUTH ([6]; dosage 80 g/ha): 10%
- Herbicidal action against ABUTH ([6]; dosage 320 g/ha): 60%
- Herbicidal action against SETVI (SETVI: Setaria viridis [7]; dosage 80 g/ha): 60%
- Herbicidal action against PHBPU (PHBPU: Ipomoea purpurea [8]; dosage 80 g/ha): 20%
- Herbicidal action against PHBPU (PHBPU: Ipomoea purpurea [8]; dosage 320 g/ha): 80%

Compound: Cc1ccc2c(c1)[C@H](Nc1ncc(C(C)(C)O)cn1)[C@@H](C)C2 [Example 1.4]
- Herbicidal action against ALOMY ([9]; dosage 80 g/ha): 90%
- Herbicidal action against ALOMY ([9]; dosage 320 g/ha): 100%
- Herbicidal action against CYPES (CYPES; dosage 80 g/ha): 80%
- Herbicidal action against CYPES (CYPES; dosage 320 g/ha): 100%
- Herbicidal action against LOLRI (LOLRI: Lolium rigidum [10]; dosage 80 g/ha): 100%
- Herbicidal action against LOLRI (LOLRI: Lolium rigidum [10]; dosage 320 g/ha): 100%
- Herbicidal action against HORMU (HORMU: Hordeum murinum [11]; dosage 80 g/ha): 90%
- Herbicidal action against HORMU (HORMU: Hordeum murinum [11]; dosage 320 g/ha): 100%
- Herbicidal action against AVEFA (AVEFA: Avena fatua [12]; dosage 80 g/ha): 80%
- Herbicidal action against AVEFA (AVEFA: Avena fatua [12]; dosage 320 g/ha): 100%
- Herbicidal action against VIOTR (VIOTR: Viola tricolor [13]): 100%
- Herbicidal action against ECHCG ([14]; dosage 80 g/ha): 100%
- Herbicidal action against ECHCG ([14]; dosage 320 g/ha): 100%
- Herbicidal action against MATIN [15]: 100%
- Herbicidal action against STEME (STEME: Stellaria media [16]): 100%
- Herbicidal action against POLCO ([17]; dosage 80 g/ha): 100%
- Herbicidal action against POLCO ([17]; dosage 320 g/ha): 100%
- Herbicidal action against ABUTH ([18]; dosage 80 g/ha): 100%
- Herbicidal action against ABUTH ([18]; dosage 320 g/ha): 100%
- Herbicidal action against VERPE (VERPE: Veronica persica [19]): 100%
- Herbicidal action against AMARE ([20]; dosage 80 g/ha): 100%
- Herbicidal action against AMARE ([20]; dosage 320 g/ha): 100%
- Herbicidal action against SETVI (SETVI: Setaria viridis [21]; dosage 80 g/ha): 100%
- Herbicidal action against SETVI (SETVI: Setaria viridis [21]; dosage 320 g/ha): 100%
- Herbicidal action against PHBPU (PHBPU: Ipomoea purpurea [22]; dosage 80 g/ha): 80%
- Herbicidal action against PHBPU (PHBPU: Ipomoea purpurea [22]; dosage 320 g/ha): 100%
- Herbicidal action against ALOMY ([1]; dosage 80 g/ha): 20%
- Herbicidal action against ALOMY ([1]; dosage 320 g/ha): 70%
- Herbicidal action against LOLRI (LOLRI: Lolium rigidum [2]; dosage 80 g/ha): 60%
- Herbicidal action against LOLRI (LOLRI: Lolium rigidum [2]; dosage 320 g/ha): 90%
- Herbicidal action against AVEFA (AVEFA: Avena fatua [23]; dosage 80 g/ha): 20%
- Herbicidal action against AVEFA (AVEFA: Avena fatua [23]; dosage 320 g/ha): 50%
- Herbicidal action against VIOTR (VIOTR: Viola tricolor [24]; dosage 80 g/ha): 90%
- Herbicidal action against ECHCG ([4]; dosage 80 g/ha): 30%
- Herbicidal action against ECHCG ([4]; dosage 320 g/ha): 90%
- Herbicidal action against MATIN ([25]; dosage 80 g/ha): 40%
- Herbicidal action against MATIN ([25]; dosage 320 g/ha): 80%
- Herbicidal action against STEME (STEME: Stellaria media [26]; dosage 80 g/ha): 60%
- Herbicidal action against STEME (STEME: Stellaria media [26]; dosage 320 g/ha): 90%
- Herbicidal action against POLCO ([5]; dosage 80 g/ha): 70%
- Herbicidal action against POLCO ([5]; dosage 320 g/ha): 90%
- Herbicidal action against ABUTH ([6]; dosage 80 g/ha): 60%
- Herbicidal action against ABUTH ([6]; dosage 320 g/ha): 90%
- Herbicidal action against AMARE ([27]; dosage 320 g/ha): 100%
- Herbicidal action against SETVI (SETVI: Setaria viridis [7]; dosage 320 g/ha): 80%
- Herbicidal action against PHBPU (PHBPU: Ipomoea purpurea [8]; dosage 320 g/ha): 100%

Compound: Cc1ccc2c(c1)[C@H](Nc1ncc(C(C)(C)O)c(C)n1)[C@@H](C)C2 [Example 1.6]
- Herbicidal action against ALOMY ([9]; dosage 80 g/ha): 100%
- Herbicidal action against ALOMY ([9]; dosage 320 g/ha): 100%
- Herbicidal action against LOLRI (LOLRI: Lolium rigidum [10]; dosage 80 g/ha): 100%
- Herbicidal action against LOLRI (LOLRI: Lolium rigidum [10]; dosage 320 g/ha): 100%
- Herbicidal action against HORMU (HORMU: Hordeum murinum [11]; dosage 80 g/ha): 100%
- Herbicidal action against HORMU (HORMU: Hordeum murinum [11]; dosage 320 g/ha): 100%
- Herbicidal action against AVEFA (AVEFA: Avena fatua [12]; dosage 80 g/ha): 80%
- Herbicidal action against AVEFA (AVEFA: Avena fatua [12]; dosage 320 g/ha): 100%
- Herbicidal action against VIOTR (VIOTR: Viola tricolor [13]): 100%
- Herbicidal action against ECHCG ([14]; dosage 80 g/ha): 100%
- Herbicidal action against ECHCG ([14]; dosage 320 g/ha): 100%
- Herbicidal action against MATIN [15]: 100%
- Herbicidal action against STEME (STEME: Stellaria media [16]): 100%
- Herbicidal action against POLCO ([17]; dosage 80 g/ha): 100%
- Herbicidal action against POLCO ([17]; dosage 320 g/ha): 100%
- Herbicidal action against ABUTH ([18]; dosage 80 g/ha): 90%
- Herbicidal action against ABUTH ([18]; dosage 320 g/ha): 100%
- Herbicidal action against VERPE (VERPE: Veronica persica [19]): 100%
- Herbicidal action against AMARE ([20]; dosage 80 g/ha): 100%
- Herbicidal action against AMARE ([20]; dosage 320 g/ha): 100%
- Herbicidal action against SETVI (SETVI: Setaria viridis [21]; dosage 80 g/ha): 100%
- Herbicidal action against SETVI (SETVI: Setaria viridis [21]; dosage 320 g/ha): 100%
- Herbicidal action against PHBPU (PHBPU: Ipomoea purpurea [22]; dosage 80 g/ha): 80%
- Herbicidal action against PHBPU (PHBPU: Ipomoea purpurea [22]; dosage 320 g/ha): 100%
- Herbicidal action against ALOMY ([1]; dosage 80 g/ha): 90%
- Herbicidal action against ALOMY ([1]; dosage 320 g/ha): 100%
- Herbicidal action against LOLRI (LOLRI: Lolium rigidum [2]; dosage 80 g/ha): 40%
- Herbicidal action against LOLRI (LOLRI: Lolium rigidum [2]; dosage 320 g/ha): 100%
- Herbicidal action against AVEFA (AVEFA: Avena fatua [23]; dosage 320 g/ha): 100%
- Herbicidal action against VIOTR (VIOTR: Viola tricolor [24]; dosage 80 g/ha): 90%
- Herbicidal action against VIOTR (VIOTR: Viola tricolor [24]; dosage 320 g/ha): 90%
- Herbicidal action against ECHCG ([4]; dosage 80 g/ha): 100%
- Herbicidal action against ECHCG ([4]; dosage 320 g/ha): 100%
- Herbicidal action against MATIN ([25]; dosage 80 g/ha): 20%
- Herbicidal action against STEME (STEME: Stellaria media [26]; dosage 80 g/ha): 100%
- Herbicidal action against STEME (STEME: Stellaria media [26]; dosage 320 g/ha): 100%
- Herbicidal action against POLCO ([5]; dosage 320 g/ha): 80%
- Herbicidal action against ABUTH ([6]; dosage 80 g/ha): 80%
- Herbicidal action against ABUTH ([6]; dosage 320 g/ha): 90%
- Herbicidal action against VERPE (VERPE: Veronica persica [28]): 80%
- Herbicidal action against AMARE ([27]; dosage 80 g/ha): 100%
- Herbicidal action against AMARE ([27]; dosage 320 g/ha): 100%
- Herbicidal action against SETVI (SETVI: Setaria viridis [7]; dosage 80 g/ha): 90%
- Herbicidal action against SETVI (SETVI: Setaria viridis [7]; dosage 320 g/ha): 100%
- Herbicidal action against PHBPU (PHBPU: Ipomoea purpurea [8]; dosage 320 g/ha): 100%
